Laboratory results from PubChem BioAssay AID588839 (The Scripps Research Institute Molecular Screening Center, 2011).
The source made the active and inactive calls.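 The calls were made as follows: active = EC50 at or below 10 µM; inactive = EC50 above 10 µM.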

Target: cAMP-dependent protein kinase type I-alpha regulatory subunit (Bos taurus) + cAMP-dependent protein kinase catalytic subunit beta (Mus musculus) (UniProt P00514+P68181)
Assay: PKA-R1A holoenzyme activators, late-stage follow-up, biochemical, fluorescence polarization, powder samples (AID 588839)
Conditions: PKA-R1A dissociation, Cy5-IP20 fluorescence polarization

| Structure (SMILES) | EC50 |
| --- | --- |
| O=C(O)c1sccc1NC(=O)c1c(Cl)cccc1Cl | > 100 µM (inactive) |
| O=C(O)c1sccc1SCc1ccc(Cl)c(Cl)c1 | > 100 µM (inactive) |
| O=C(O)c1sccc1SCc1ccc(Cl)cc1Cl | > 100 µM (inactive) |
| Cc1ccc(COc2ccsc2C(=O)O)cc1 | > 100 µM (inactive) |
| Cc1csc(C(=O)O)c1NC(=O)c1ccc(F)cc1 | > 100 µM (inactive) |
| CC(C)(C)c1ccc(COc2ccsc2C(=O)O)cc1 | > 100 µM (inactive) |

Second part, the compound after the results:

| EC50 | Structure (SMILES) |
| --- | --- |
| > 100 µM (inactive) | COC(=O)c1sc2ncccc2c1OCc1ccc(Cl)cc1Cl |
| > 100 µM (inactive) | O=C(O)c1sc2ncccc2c1OCc1ccccc1 |
| > 100 µM (inactive) | COC(=O)c1sc2ncccc2c1OCc1ccccc1Cl |
